{"source": "patent US20220096449A1", "about": "“METHOD OF TREATMENT WITH TRADIPITANT” (Vanda Pharmaceuticals Inc., priority 2018, published 2022)", "key": {"[1]": {"target": "T1, NK-2 receptor (Homo sapiens, UniProt P21452)", "T1 sequence (P21452 1-398)": "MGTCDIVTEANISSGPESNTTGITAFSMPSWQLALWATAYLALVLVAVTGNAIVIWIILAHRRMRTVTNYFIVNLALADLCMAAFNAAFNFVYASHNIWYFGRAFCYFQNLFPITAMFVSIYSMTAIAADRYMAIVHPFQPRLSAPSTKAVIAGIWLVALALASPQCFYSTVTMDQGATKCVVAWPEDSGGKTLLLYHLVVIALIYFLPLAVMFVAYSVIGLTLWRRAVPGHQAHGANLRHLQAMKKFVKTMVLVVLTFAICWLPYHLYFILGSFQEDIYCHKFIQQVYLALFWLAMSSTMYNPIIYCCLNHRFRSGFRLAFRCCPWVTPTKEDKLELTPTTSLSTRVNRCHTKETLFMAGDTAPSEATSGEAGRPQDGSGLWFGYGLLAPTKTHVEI", "assay": "NK-2 receptor inhibition", "type": "binding"}, "[2]": {"target": "T2, NK-3 receptor (Homo sapiens, UniProt P29371)", "T2 sequence (P29371 1-465)": "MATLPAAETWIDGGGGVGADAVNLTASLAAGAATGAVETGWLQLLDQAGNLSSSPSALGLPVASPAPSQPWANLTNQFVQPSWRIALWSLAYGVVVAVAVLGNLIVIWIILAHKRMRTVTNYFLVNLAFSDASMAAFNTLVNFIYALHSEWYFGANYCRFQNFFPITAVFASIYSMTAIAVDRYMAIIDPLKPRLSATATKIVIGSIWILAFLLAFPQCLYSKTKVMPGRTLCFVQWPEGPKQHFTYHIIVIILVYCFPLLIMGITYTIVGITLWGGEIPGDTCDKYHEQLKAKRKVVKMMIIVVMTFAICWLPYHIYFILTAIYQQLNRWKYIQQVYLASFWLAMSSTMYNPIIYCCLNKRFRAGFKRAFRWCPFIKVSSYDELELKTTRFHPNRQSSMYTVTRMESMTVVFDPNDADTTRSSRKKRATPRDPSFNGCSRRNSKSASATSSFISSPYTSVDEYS", "assay": "NK-3 receptor inhibition", "type": "binding"}, "[3]": {"system": "apomorphine-induced emesis", "assay": "Apomorphine emetic challenge in beagle dogs", "type": "in vivo, beagle dog", "settings": "for Total No. Emetic Episodes: apomorphine 0.1 mg/kg iv 2 hours later, 5 dogs", "method": "Over the five (5) weeks of the study, each animal receives each of the treatments, but only one per week. The purpose of this study is to determine if tradipitant suppresses apomorphine-induced emesis.\nAll animals are dosed over a period of five (5) weeks, with each dog receiving one of five different treatments on each day of dosing.\nAll dogs are fasted overnight prior to each treatment day and then fed approximately one (1) hour after oral dosing (approximately one (1) hour prior to administration of apomorphine). Individual doses are adjusted weekly for changes in body weight.\nThe dose regimen consists of a 5×5 Latin square design, in which each subject receives 1 dose or dose combination per week (6 day washout) as shown in Table 3 below."}, "[4]": {"target": "T3, NK-1 receptor (Cavia porcellus, UniProt P30547)", "T3 construct": "from tissue; host or cells: living guinea pigs (central NK-1 receptors)", "T3 sequence (P30547 whole entry)": "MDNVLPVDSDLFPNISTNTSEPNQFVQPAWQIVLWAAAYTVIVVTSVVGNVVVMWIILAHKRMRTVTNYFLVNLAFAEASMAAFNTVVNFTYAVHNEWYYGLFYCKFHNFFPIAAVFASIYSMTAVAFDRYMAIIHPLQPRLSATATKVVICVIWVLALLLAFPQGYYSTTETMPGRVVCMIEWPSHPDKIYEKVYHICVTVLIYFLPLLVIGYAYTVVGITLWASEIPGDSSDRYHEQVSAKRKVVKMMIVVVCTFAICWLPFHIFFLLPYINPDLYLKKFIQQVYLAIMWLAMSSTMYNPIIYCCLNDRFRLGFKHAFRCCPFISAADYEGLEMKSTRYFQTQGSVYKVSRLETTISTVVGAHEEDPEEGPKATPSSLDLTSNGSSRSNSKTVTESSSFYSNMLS", "assay": "GR73632-induced vocalization in guinea pigs", "type": "in vivo, guinea pig", "method": "Male Dunkin/Hartley guinea pigs (200 to 250 grams) are orally administered either vehicle or an NK-1 antagonist. Approximately 45 minutes later (for dose response studies), the animals are anesthetized and 0.1 nmol of GR73632 (SP analog) in a vehicle volume of 5 μl is injected into the cerebral ventricle at the intersection of bregma and the midline of the skull. Animals are placed in a dark testing chamber located inside of a sound attenuation cubicle and vocalizations are recorded for 30 minutes following recovery from anesthesia. The time spent vocalizing is quantified for each animal. In the duration of action study, 0.1 mg/kg of tradipitant or vehicle solution is administered orally and then 2, 4, or 7 hours later, 0.1 nmol of GR73632 is administered into the cerebral ventricle as described above. Vocalizations are recorded and quantified as indicated above. Vehicle solutions are either CMC (FIG. 4 data) or an ethanol/emulphor solution (FIGS. 5 and 6). Data is analyzed using one-tailed t-tests."}, "[5]": {"system": "healthy subjects", "assay": "Gamma scintigraphic gastrointestinal motility study in healthy subjects", "type": "in vivo, human", "settings": "single oral dose 20 mg or 200 mg", "method": "A single-center, randomized, double-blind, placebo-controlled study is conducted to investigate the effect of tradipitant on small bowel transit time. A total of 15 healthy subjects, 12 men and 3 women, between the ages of 19 and 63 years are enrolled in the study and receive at least 1 dose of study medication. A total of 13 subjects complete the study. Subjects are randomized to receive 20 mg of tradipitant, 200 mg of tradipitant, or placebo as a single oral dose within each of 3 periods, co-administered with a capsule radiolabeled with a maximum of 1MBq ^111In. Four hours post-dose, all subjects also receive a second capsule radiolabeled with a maximum of 4MBq ^99mTc. Each subject receives all 3 doses during the study. For all dosing regimens, in vivo gamma scintigraphic studies are performed at predetermined intervals, and the following scintigraphic parameters are analyzed: onset and completion of gastric emptying, onset and completion of colon arrival, initiation and completion of small bowel transit, and initial and complete disintegration of the capsule (anatomical location and time)."}}, "note": "Marks after values point to notes of the source that are not given here.", "data": [{"smiles": "O=C(c1ccccc1Cl)c1cccnc1-c1nnn(Cc2cc(C(F)(F)F)cc(C(F)(F)F)c2)c1-c1ccncc1", "note": "[Tradipitant, {2-[1-(3,5-bistrifluoromethylbenzyl)-5-pyridin-4-yl-1H-[1,2,3]triazol-4-yl]-pyridin-3-yl}-(2-chlorophenyl)-methanone]", "values": [{"measurement": "inhibition at NK-2 receptor", "setting": "[1]", "value": "no significant inhibition"}, {"measurement": "inhibition at NK-3 receptor", "setting": "[2]", "value": "no significant inhibition"}, {"measurement": "Total No. Emetic Episodes", "setting": "[3]; 0.3 mg/kg oral", "value": "1**"}, {"measurement": "Total No. Emetic Episodes", "setting": "[3]; 1.0 mg/kg oral", "value": "1**"}, {"measurement": "Total No. Emetic Episodes", "setting": "[3]; 3.0 mg/kg oral", "value": "1**"}, {"measurement": "effect against apomorphine-induced emesis", "setting": "[3]; each dose tested (0.3, 1.0, and 3.0 mg/kg)", "value": "effective"}, {"measurement": "suppression of agonist-induced vocalization", "setting": "[4]; 0.1 mg/kg oral, 7 hours after administration", "value": "significantly active"}, {"measurement": "inhibitory activity on vocalization", "setting": "[4]; at and below 0.1 mg/kg", "value": "retains significant inhibitory activity"}, {"measurement": "inhibition of agonist-induced vocalization", "setting": "[4]; oral, 10, 1.0, 0.1 and 0.05 mg/kg (each p<0.001)", "value": "significant inhibition"}, {"measurement": "duration of activity", "setting": "[4]; oral, guinea pig", "value": "exceeds 7 hours"}, {"measurement": "minimum effective dose (MED), inhibition of vocalization", "setting": "[4]; oral, guinea pig", "value": 0.025, "unit": "mg/kg"}, {"measurement": "effect on small bowel transit time", "setting": "[5]", "value": "statistically significant effect"}, {"measurement": "effect on gastric emptying", "setting": "[5]; study underpowered", "value": "No effect"}]}]}
